# Measurements published in US20250032557A1, “Novel Strain Having Antagonism Against Proteus Mirabilis and Excellent Effect on Neurodegenerative Disease, and use Thereof” (METACEN THERAPEUTICS CO., LTD, priority 2021, published 2025).
# Assay: Protective ability against MPP^+ induced apoptosis of neurons (WST-1 cell viability)
# Type: cell-based
# Conditions: human, MPP^+ 1 mM alone, read-out: Cell viability % compared to control
# Experimental: The following experiment was performed to evaluate the protective ability against apoptosis of neurons caused by MPP^+, a Parkinson's disease-inducing toxicity, in differentiated SH-Sy5y cells (brain neurons) for the Weissella cibaria strains shown in Table 2 above.
# Thereafter, the existing medium was removed and replaced with 0.5% fetal bovine serum DMEM medium to which a sample was added at various concentrations. After 4 hours, the cells were treated with MPP^+ neurotoxicity at a concentration of 1 mM and cultured for an additional 44 hours. Thereafter, the medium was treated with the WST-1 solution and cultured for 2 hours to induce a reduction reaction, and then the absorbance was measured at 450 nm using an ELISA microplate reader.
structure (smiles),measurement,value
"C[n+]1ccc(-c2ccccc2)cc1 [MPP^+, 1-methyl-4-phenylpyridinium iodide]","viability at 44 h, 1 mM",53%
